Test results as given in ChEMBL document CHEMBL1201862, “PubChem BioAssay data set” (2004).
Active and inactive are the calls of the source.

Columns and labels:
[1] = inhibitors of firefly luciferase expression or activity, dose response, H4 neuroglioma cells, luminescence (AID 1990); assay type: functional, cell-based
[2] = Luminescence Cell-Based Dose Response HTS to Identify Inhibitors of 5'UTR Stem-Loop Driven Prion Protein mRNA Translation in H4 Neuroglioblastoma Cells. [Related pubchem assays: 1827 (Project Summary), 1813 (Primary HTS)]; assay type: functional
[3] = inhibitors of SNCA 5'UTR-driven reporter translation, confirmation, H4 neuroglioma cells, luminescence (AID 1988); assay type: functional, cell-based
Cytochrome P450 2C19 = Cytochrome P450 2C19 (Homo sapiens, UniProt P33261); assay: Cytochrome panel assay with activity outcomes. Panel member name: p450-cyp2c19 Compounds with AC50 equal or less than 10 uM are considered active; assay type: functional; settings: read-out: AC50
Cytochrome P450 2D6 = Cytochrome P450 2D6 (Homo sapiens, UniProt P10635);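 further: CYP2D6 member of a cytochrome P450 panel assay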
Cytochrome P450 3A4 = Cytochrome P450 3A4 (Homo sapiens, UniProt P08684);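 further: CYP3A4 tested as one member of a cytochrome P450 panel screen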
[4] = NIH-3T3 fibroblast cytotoxicity, dose response, cytotoxicity control, cell-based, fluorescence, Alamar Blue, secondary assay (AID 2327); assay type: functional;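 further: NIH-3T3 mouse fibroblasts cultured with fluconazole at 8 µg/mL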
Cytochrome P450 2C9 = Cytochrome P450 2C9 (Homo sapiens, UniProt P11712)
[5] = biological target: Luciferin 4-monooxygenase (Photinus pyralis, UniProt P08659); assay: firefly luciferase enzyme inhibitors, dose response, biochemical, luminescence (AID 1891)
[6] = Luminescence Cell-Based Dose Confirmation HTS to Identify Inhibitors of Platelet Dense Granule Release. [Related pubchem assays: 1663 (Primary HTS), 1678 (Summary of Project)]; assay type: functional
Cytochrome P450 1A2 = biological target: T1, Cytochrome P450 1A2 (Homo sapiens, UniProt P05177);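 further: PubChem cytochrome P450 panel assay, CYP1A2 panel member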
T1 sequence (P05177 whole entry): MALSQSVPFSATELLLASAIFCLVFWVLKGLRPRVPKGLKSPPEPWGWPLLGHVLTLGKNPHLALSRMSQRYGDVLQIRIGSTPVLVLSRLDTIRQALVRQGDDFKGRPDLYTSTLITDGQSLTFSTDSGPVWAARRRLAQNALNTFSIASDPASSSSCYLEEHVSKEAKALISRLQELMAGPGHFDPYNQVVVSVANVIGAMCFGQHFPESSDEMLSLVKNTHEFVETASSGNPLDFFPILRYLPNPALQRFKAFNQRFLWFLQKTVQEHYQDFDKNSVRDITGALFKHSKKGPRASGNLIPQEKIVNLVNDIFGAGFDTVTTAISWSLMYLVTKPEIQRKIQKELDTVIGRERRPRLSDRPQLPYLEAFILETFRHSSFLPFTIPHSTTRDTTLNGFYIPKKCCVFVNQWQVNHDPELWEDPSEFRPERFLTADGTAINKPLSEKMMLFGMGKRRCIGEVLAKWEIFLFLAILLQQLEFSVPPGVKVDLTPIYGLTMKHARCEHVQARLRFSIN

[7] = biological target: T2, Corticotropin-releasing factor receptor 2/Corticotropin-releasing factor-binding protein (Homo sapiens, UniProt P24387+Q13324); assay: Dose Response confirmation of uHTS hits for small molecule antagonists of the CRF-binding protein and CRF-R2 receptor complex.; assay type: functional; settings: read-out: IC50_Mean
T2 sequence (Q13324 whole entry): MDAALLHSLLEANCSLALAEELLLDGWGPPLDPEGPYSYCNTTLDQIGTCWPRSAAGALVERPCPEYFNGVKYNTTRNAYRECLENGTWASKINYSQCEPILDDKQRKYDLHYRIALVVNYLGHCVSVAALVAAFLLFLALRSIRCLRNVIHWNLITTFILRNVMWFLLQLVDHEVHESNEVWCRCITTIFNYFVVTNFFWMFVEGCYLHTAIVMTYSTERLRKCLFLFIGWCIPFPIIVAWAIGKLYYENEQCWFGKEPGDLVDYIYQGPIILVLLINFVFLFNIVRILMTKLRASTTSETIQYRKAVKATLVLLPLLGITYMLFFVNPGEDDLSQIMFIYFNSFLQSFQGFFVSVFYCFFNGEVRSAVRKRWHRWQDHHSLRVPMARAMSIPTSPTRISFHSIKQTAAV
T2 sequence (P24387 whole entry): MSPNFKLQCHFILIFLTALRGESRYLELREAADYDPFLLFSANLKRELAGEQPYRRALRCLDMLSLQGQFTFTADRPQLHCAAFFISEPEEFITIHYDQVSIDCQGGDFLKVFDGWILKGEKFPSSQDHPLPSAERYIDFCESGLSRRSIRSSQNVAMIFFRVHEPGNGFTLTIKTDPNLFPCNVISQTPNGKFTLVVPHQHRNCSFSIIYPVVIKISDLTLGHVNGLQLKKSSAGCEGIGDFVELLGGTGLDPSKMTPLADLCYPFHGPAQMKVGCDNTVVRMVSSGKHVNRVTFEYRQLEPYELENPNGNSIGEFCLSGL

[8] = biological target: T2, Corticotropin-releasing factor receptor 2/Corticotropin-releasing factor-binding protein; assay: activators of CRF receptor 2 with binding protein – uHTS hits, confirmation (AID 602473); assay type: functional; settings: read-out: EC50_Mean
[9] = Luminescence Cell-Based Dose Confirmation HTS to Identify Activators of 5'UTR Stem-Loop Driven Alpha-Synuclein mRNA Translation in H4 Neuroglioblastoma Cells. [Related pubchem assays: 1829 (Project Summary), 1814 (Primary HTS)]; assay type: functional
[10] = Luminescence Cell-Based Dose Response HTS to Identify Activators of Luciferase Translation or Activity in H4 […] Cells. [Related pubchem assays: 1829 (Project Summary), 1814 (Primary HTS)]; assay type: functional
H4 = assay: Luminescence Cell-Based Dose Response HTS to Identify Activators of 5'UTR Stem-Loop Driven Prion Protein mRNA Translation in H4 Neuroglioblastoma Cells. [Related pubchem assays: 1829 (Project Summary), 1814 (Primary HTS)]; assay type: functional; settings: Homo sapiens
INS1 = assay: beta cell apoptosis inhibitors, cytokine rescue, dose response, luminescence, retest (AID 449756); assay type: functional, cell-based; settings: Rattus norvegicus;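 further: cell death triggered by IL-1 beta plus TNF-alpha plus IFN-gamma mixture; protective hits raise ATP signal compared with cytokine alone wells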
Paired box protein Pax-8 = Paired box protein Pax-8 (Homo sapiens, UniProt Q06710); assay: inhibitors of PAX8-driven TPO luciferase reporter, dose response, RMG-I cells, cherry-pick (AID 687027); assay type: functional, cell-based;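 further: luciferase reporter driven by Pax8 target thyroperoxidase promoter measured by SteadyGlo luminescence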
Sequence of Paired box protein Pax-8 (Q06710 whole entry): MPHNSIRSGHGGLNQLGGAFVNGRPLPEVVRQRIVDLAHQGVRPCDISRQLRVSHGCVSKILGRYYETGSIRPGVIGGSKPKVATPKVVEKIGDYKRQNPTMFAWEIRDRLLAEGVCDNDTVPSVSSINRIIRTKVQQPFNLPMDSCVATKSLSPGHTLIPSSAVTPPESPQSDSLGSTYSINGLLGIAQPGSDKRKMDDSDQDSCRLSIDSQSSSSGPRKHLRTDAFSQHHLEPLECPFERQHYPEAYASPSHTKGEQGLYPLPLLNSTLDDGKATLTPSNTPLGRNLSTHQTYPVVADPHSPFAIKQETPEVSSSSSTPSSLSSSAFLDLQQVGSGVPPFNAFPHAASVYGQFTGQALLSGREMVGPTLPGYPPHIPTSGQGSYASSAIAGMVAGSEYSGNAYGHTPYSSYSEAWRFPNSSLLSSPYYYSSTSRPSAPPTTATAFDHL

Sequence of Cytochrome P450 2D6 (P10635 whole entry): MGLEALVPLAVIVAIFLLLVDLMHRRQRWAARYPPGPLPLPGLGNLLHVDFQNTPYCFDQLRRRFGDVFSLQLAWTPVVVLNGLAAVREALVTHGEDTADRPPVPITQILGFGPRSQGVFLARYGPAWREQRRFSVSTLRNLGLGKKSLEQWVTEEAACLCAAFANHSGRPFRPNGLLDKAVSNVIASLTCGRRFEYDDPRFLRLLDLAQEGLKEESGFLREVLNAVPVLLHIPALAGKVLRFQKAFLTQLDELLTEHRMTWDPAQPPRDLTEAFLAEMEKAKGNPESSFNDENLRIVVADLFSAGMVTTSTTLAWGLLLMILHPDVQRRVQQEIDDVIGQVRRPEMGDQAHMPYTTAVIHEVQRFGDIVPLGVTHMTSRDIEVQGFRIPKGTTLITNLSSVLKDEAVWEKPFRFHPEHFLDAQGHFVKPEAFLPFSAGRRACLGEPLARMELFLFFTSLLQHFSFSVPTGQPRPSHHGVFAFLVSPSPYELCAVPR
Sequence of Luciferin 4-monooxygenase (P08659 whole entry): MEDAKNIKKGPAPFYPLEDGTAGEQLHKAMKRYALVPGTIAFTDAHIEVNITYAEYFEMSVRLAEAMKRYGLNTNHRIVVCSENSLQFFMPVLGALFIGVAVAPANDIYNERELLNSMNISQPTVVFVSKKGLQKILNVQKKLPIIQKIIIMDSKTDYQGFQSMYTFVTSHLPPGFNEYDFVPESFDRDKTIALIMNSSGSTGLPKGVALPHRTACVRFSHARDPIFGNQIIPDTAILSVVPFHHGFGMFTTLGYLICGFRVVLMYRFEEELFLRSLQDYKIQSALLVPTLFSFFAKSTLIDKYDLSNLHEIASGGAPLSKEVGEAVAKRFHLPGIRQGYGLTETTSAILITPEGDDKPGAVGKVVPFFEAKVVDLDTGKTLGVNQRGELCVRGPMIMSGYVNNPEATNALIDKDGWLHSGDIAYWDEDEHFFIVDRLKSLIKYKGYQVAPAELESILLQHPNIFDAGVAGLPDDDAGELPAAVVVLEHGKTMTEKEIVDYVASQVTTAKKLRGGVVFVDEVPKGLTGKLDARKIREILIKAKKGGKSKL
Sequence of Cytochrome P450 2C9 (P11712 whole entry): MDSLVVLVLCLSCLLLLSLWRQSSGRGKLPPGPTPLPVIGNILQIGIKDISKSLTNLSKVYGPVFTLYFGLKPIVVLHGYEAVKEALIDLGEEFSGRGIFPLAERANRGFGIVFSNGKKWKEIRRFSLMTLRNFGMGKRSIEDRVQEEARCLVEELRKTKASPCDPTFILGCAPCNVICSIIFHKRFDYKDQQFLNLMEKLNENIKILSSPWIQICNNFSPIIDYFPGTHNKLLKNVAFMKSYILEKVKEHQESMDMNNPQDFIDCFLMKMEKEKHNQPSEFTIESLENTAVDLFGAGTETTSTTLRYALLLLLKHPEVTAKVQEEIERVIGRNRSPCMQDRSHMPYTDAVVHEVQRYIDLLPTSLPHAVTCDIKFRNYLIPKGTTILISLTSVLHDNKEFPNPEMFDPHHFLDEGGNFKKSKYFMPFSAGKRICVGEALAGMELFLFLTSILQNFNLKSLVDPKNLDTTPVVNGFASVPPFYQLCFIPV
Sequence of Cytochrome P450 3A4 (P08684 whole entry): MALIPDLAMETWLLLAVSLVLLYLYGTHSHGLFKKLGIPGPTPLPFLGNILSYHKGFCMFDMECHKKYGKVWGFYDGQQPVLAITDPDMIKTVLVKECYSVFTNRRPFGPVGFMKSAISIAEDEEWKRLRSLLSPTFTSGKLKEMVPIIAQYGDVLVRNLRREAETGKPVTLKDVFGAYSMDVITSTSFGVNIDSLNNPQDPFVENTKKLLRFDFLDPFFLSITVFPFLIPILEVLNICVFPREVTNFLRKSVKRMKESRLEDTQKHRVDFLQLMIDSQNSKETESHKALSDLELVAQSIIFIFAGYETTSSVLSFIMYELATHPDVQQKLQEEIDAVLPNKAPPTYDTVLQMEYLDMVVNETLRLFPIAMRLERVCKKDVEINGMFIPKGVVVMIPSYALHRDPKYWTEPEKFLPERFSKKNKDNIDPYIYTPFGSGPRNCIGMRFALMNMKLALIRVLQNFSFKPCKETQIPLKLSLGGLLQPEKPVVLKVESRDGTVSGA
Sequence of Cytochrome P450 2C19 (P33261 whole entry): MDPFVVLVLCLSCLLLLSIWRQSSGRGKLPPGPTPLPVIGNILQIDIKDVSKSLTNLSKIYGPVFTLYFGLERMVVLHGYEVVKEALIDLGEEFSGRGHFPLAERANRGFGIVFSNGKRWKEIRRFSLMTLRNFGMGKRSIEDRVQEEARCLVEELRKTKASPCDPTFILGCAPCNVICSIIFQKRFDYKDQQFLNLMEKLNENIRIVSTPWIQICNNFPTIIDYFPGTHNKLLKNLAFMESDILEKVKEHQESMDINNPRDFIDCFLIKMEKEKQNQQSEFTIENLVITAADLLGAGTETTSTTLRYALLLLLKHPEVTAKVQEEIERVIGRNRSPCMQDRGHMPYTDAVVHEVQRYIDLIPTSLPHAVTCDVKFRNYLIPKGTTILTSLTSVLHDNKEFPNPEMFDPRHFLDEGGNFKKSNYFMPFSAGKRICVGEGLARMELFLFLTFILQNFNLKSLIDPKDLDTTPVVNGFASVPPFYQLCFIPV

Compound: CC1C(C#N)=C(N)OC2=C1C(=O)CC(C)(C)C2 (stereo not drawn)
- EC50 [1]: > 120 µM (not active)
- EC50 [2]: > 120 µM (not active)
- EC50 [3]: 19.8 µM (active)

Compound: CC(NC(=O)c1cccc(F)c1)C(c1cccs1)N1CCN(C)CC1 (stereo not drawn)
- AC50 (Cytochrome P450 2C19): 31.6 µM (inconclusive)
- AC50 (Cytochrome P450 2D6): 15.8 µM (inconclusive)
- AC50 (Cytochrome P450 3A4): 15.8 µM (inconclusive)

Compound: Cc1cc(Cl)ccc1OCc1cn2cccnc2n1
- EC50 [4]: > 160 µM (inactive)

Compound: COc1ccc2c(c1)O[C@@H](c1cccc(C(F)(F)F)c1)[C@H](O)C2=O
- EC50 [1]: > 120 µM (not active)
- EC50 [2]: > 120 µM (not active)
- EC50 [3]: > 120 µM (not active)

Compound: COCCn1c(=O)c(-c2ccc(F)cc2)nc2cnc(N(C)C)nc21
- AC50 (Cytochrome P450 2D6): 0.631 µM (inconclusive)
- AC50 (Cytochrome P450 2C9): 12.6 µM (inconclusive)

Compound: CN(C)S(=O)(=O)c1cccc(NC(=O)CSc2nnnn2-c2ccccc2)c1
- EC50 [5]: > 112 µM (not active)
- EC50 [6]: > 112 µM (not active)

Compound: FC(F)(F)c1ccccc1-c1cc(NCCN2CCOCC2)ncn1
- AC50 (Cytochrome P450 2D6): 39.8 µM (inconclusive)
- AC50 (Cytochrome P450 1A2): 12.6 µM (inconclusive)

Compound: Cc1sc(NC(=O)c2ccco2)c(C(c2cccnc2)N2CCN(C)CC2)c1C (stereo not drawn)
- AC50 (Cytochrome P450 2D6): 12.6 µM (inconclusive)
- AC50 (Cytochrome P450 2C9): 2.82 µM (inconclusive)

Compound: CC(C)CNC(=O)COc1ccccc1[N+](=O)[O-]
- EC50 [5]: > 112 µM (not active)
- EC50 [6]: 18.7 µM (active)

Compound: COc1ccc(OC)c(-c2cc(C(=O)O)c3cc4ccccc4cc3n2)c1
- IC50 [7]: > 47.1 µM (inactive)
- EC50 [8]: > 53 µM (inactive)
- AC50 (Cytochrome P450 2C9): 3.16 µM (inconclusive)

Compound: Cc1ccc(Cl)cc1NC(=O)c1ccc(Cn2cc(Cl)cn2)cc1
- EC50 [1]: 14.4 µM (active)
- EC50 [2]: 13.7 µM (active)
- EC50 [3]: 12.2 µM (active)

Compound: O=C(NCCc1csc(-c2cccnc2)n1)c1cccs1
- EC50 [5]: > 112 µM (not active)
- EC50 [6]: > 112 µM (not active)

Compound: COc1cccc(-c2noc(C3CCCN(C(=O)c4ccccc4OC)C3)n2)c1 (stereo not drawn)
- EC50 [5]: > 112 µM (not active)
- EC50 [6]: > 112 µM (not active)

Compound: O=C(Oc1ccc([N+](=O)[O-])cc1)N1CCC(N2CCCCC2)CC1
- AC50 (Cytochrome P450 2D6): 39.8 µM (inconclusive)
- AC50 (Cytochrome P450 1A2): 20 µM (inconclusive)

Compound: Cc1cc(NC(=O)c2c(F)cccc2F)n(-c2nc3ccccc3[nH]2)n1
- AC50 (Cytochrome P450 2D6): 39.8 µM (inconclusive)
- AC50 (Cytochrome P450 3A4): 3.55 µM (inconclusive)
- AC50 (Cytochrome P450 2C9): 4.47 µM (inconclusive)

Compound: CCN(CC)c1nc(O)nc(N(CC)CC)n1
- EC50 [1]: > 120 µM (not active)
- EC50 [2]: > 120 µM (not active)
- EC50 [3]: 44.7 µM (active)

Compound: COC(=O)C1(C)CN(S(=O)(=O)c2ccc(C)cc2)c2cc(OC)ccc2C1=O (stereo not drawn)
- EC50 [5]: > 112 µM (not active)
- EC50 [6]: > 112 µM (not active)

Compound: CCOC(=O)c1ccc(NC(=O)CSc2nc3c(c(=O)n2C)SC(C)C3)cc1 (stereo not drawn)
- EC50 [5]: > 112 µM (not active)
- EC50 [6]: > 112 µM (not active)

Compound: C=CCOc1c(CNc2cccc(C(=O)O)c2)cccc1OCC
- IC50 [7]: > 47.1 µM (inactive)
- EC50 [8]: > 53 µM (inactive)

Compound: CC1(C)Cc2c(C#N)c(NCC3CCCO3)nc(-c3ccco3)c2CO1 (stereo not drawn)
- IC50 [7]: > 47.1 µM (inactive)
- EC50 [8]: > 53 µM (inactive)

Compound: COCCn1c(SCc2nnc(-c3ccccc3)o2)nc2sc3c(c2c1=O)CCC3
- IC50 [7]: > 47.1 µM (inactive)
- EC50 [8]: > 53 µM (inactive)

Compound: COc1cc(C#Cc2c(-c3ccccc3)n(C)c3ccccc23)cc(OC)c1
- IC50 [7]: > 47.1 µM (inactive)
- EC50 [8]: > 53 µM (inactive)

Compound: Cc1nc2sccn2c(=O)c1S(=O)(=O)N1CCN(c2cccc(Cl)c2)CC1
- EC50 [5]: > 112 µM (not active)
- EC50 [6]: > 112 µM (not active)

Compound: CC(C)(C)c1ccc(Oc2ccc(NC(=O)c3ccccc3C(=O)O)cn2)cc1
- EC50 [1]: 11 µM (active)
- EC50 [2]: 12 µM (active)
- EC50 [3]: 11.6 µM (active)

Compound: Cc1cc(=O)oc2cc(OCCSCCN3CCOCC3)ccc12
- EC50 [5]: > 112 µM (not active)
- EC50 [6]: > 112 µM (not active)

Compound: COC(=O)/C=C1/SC(NNC(=O)c2ccc(Cl)cc2Cl)=NC1=O
- IC50 [7]: > 47.1 µM (inactive)
- EC50 [8]: > 53 µM (inactive)

Compound: O=C(COc1ccccc1C(=O)c1cnn(-c2ccccc2)c1)Nc1ccc2ccccc2c1
- EC50 [9]: 5.67 µM (active)
- EC50 [10]: 6.97 µM (active)
- EC50 (H4): 7.44 µM (active)
- IC50 [7]: > 47.1 µM (inactive)
- EC50 [8]: > 53 µM (inactive)

Compound: c1ccc(-[n+]2nc(Nc3cccc4ccccc34)sc2-c2c3ccccc3cc3ccccc23)cc1
- AC50 (INS1): 3.17 µM (active)

Compound: CC(C)(C)C1CCc2c(sc(NC(=O)c3cc(C4CC4)on3)c2C#N)C1 (stereo not drawn)
- EC50 [5]: > 112 µM (not active)
- EC50 [6]: 23.1 µM (active)

Compound: COc1ccccc1Nc1ccc(S(=O)(=O)N2CCCCC2)cc1[N+](=O)[O-]
- IC50 [7]: > 47.1 µM (inactive)
- EC50 [8]: > 53 µM (inactive)

Compound: Nc1nnc(SCc2ccc(Cl)cc2)s1
- EC50 [5]: > 112 µM (not active)
- EC50 [6]: > 112 µM (not active)

Compound: Cc1ccccc1N1CCN(C2CCCN(C(=O)c3cn4c(C)cccc4n3)C2)CC1 (stereo not drawn)
- IC50 [7]: > 47.1 µM (inactive)
- EC50 [8]: > 53 µM (inactive)

Compound: CC(=O)OC(C)(C)/C=C/C(=O)C(C)(O)C1C(O)CC2(C)C3CC=C4C(CC(O)C(=O)C4(C)C)C3(C)C(=O)CC12C (stereo not drawn)
- AC50 (Paired box protein Pax-8): < 0.26 µM (active)

Compound: CCOC(=O)C(NCCc1ccc(F)cc1)(NC(=O)CC)C(F)(F)F (stereo not drawn)
- AC50 (INS1): > 260 µM (inactive)

Compound: CN(C)P(=O)(NC(=O)c1cccn1C)N(C)C
- IC50 [7]: > 47.1 µM (inactive)
- EC50 [8]: > 53 µM (inactive)

Compound: C=CCO/C(O)=C1\C(C)=NC2(O)c3ccccc3C(=O)C12O (stereo not drawn)
- IC50 [7]: > 47.1 µM (inactive)
- EC50 [8]: > 53 µM (inactive)

Compound: Cc1ccc(NC(=O)COC(=O)c2cccnc2Cl)cc1S(=O)(=O)N1CCOCC1
- IC50 [7]: > 47.1 µM (inactive)
- EC50 [8]: > 53 µM (inactive)

Compound: C[C@@H]1CN([C@@H](C)CO)C(=O)c2cc(NS(=O)(=O)c3ccccc3)ccc2O[C@@H](C)CCCCO[C@@H]1CN(C)Cc1ccc(C(F)(F)F)cc1
- AC50 (Paired box protein Pax-8): 5.71 µM (active)

Compound: COc1ccc(NC(=O)Nc2ccc3c(c2)C(=O)N([C@@H](C)CO)C[C@@H](C)[C@@H](CN(C)CC2CCCCC2)OCCCC[C@@H](C)O3)cc1
- AC50 (Paired box protein Pax-8): 14.5 µM (active)
